From ChEMBL document CHEMBL1144267, “New conformationally locked bicyclic N,O-nucleoside analogues of antiviral drugs” (2005)

Key:
Assay type in all cases: functional
Human alphaherpesvirus 1 [1] = assay: Antiviral efficacy in Vero cells infected with HSV-1 at concentration of 200 uM
Human alphaherpesvirus 1 [2] = assay: Antiviral efficacy in Vero cells infected with HSV-1 at concentration of 100 uM
Human alphaherpesvirus 1 [3] = assay: Antiviral efficacy in Vero cells infected with HSV-1 at concentration of 400 uM
Human alphaherpesvirus 1 [4] = assay: Antiviral efficacy in Vero cells infected with HSV-1 at concentration of 800 uM

Structure (SMILES) | Cells killed (Human alphaherpesvirus 1 [1]) [%] | Cells killed (Human alphaherpesvirus 1 [2]) [%] | Cells killed (Human alphaherpesvirus 1 [3]) [%] | Cells killed (Human alphaherpesvirus 1 [4]) [%]
O=c1ccn(C2CC3CCCN3O2)c(=O)[nH]1 (configuration not stated) | -55 | -41 | -70 | -83
Nc1ccn(C2CC3CCCN3O2)c(=O)n1 (configuration not stated) | -3 | -3 | -6 | -67
Cc1cn(C2CC3CCCN3O2)c(=O)[nH]c1=O (configuration not stated) | -10 | -5 | -12 | -55
